# Experimental data from US20130310347A1, “MULTI-MODALITY MOLECULAR IMAGING HIGH-THROUGHPUT ASSAY FOR IDENTIFYING HEAT SHOCK PROTEIN 90 (HSP90) INHIBITORS” (The Board of Trustees of the Leland Stanford Junior …, priority 2012, published 2013).
# What was measured:
# [1] = system: DOX-resistant V79/ADR lung cancer cells; experiment: Sensitivity to DOX, Alamar Blue assay; assay type: cell-based; conditions: DOX 0.31-10 μM with inhibitor (CP9 8 μM), 24 h
# Protocol: FIGS. 13A-13C illustrate the inhibition of cell proliferation of DOX-resistant V79/ADR lung cancer cells by CP9 and the Hsp90 inhibitor PU-H71 in cell culture. V79 lung cancer cells and […] cells that are resistant to DOX were treated with DOX (0.31-10 μM) in the presence or absence of CP9 (8 μM) for 24 h before determination of cell number by an Alamar Blue assay.
# Both Hsp90 isoforms (α and β) are expressed in cancer cells, but Hsp90β is constitutively expressed, whereas the expression of Hsp90α is highly inducible during stress and drug treatment. Using the genetically encoded split Renilla reporter system according to the disclosure, it was possible to decipher the individual contributions of each isoform in determining the sensitivity of Hsp90 inhibitors. It was reported that the transcription of MDR1 is regulated by HSF-1, which in turn is regulated by Hsp90α (Trepel et al., (2010) Nat. Rev. Cancer 10: 537-549). To determine the biological significance of CP9 selectivity in inhibiting Hsp90α/p23 interactions, V79 lung cancer cells and V79/ADR cells that overexpress multidrug-resistant protein and are insensitive to growth inhibition by doxorubicin (DOX) were used. V79 and V79/ADR cells were treated with DOX alone or in the presence of CP9. On the other hand, the addition of CP9 sensitized V79/ADR cells to DOX, as shown by the decrease in cell proliferation relative to treatment with DOX alone, as shown in FIG. 13B. […] The results also are consistent with the observation that derivatives of Hsp90 inhibitor peptides sensitize cancer cells with overexpression of MDR to epirubicin (a class of anthracyclines that includes DOX) (Molnar et al., (2007) In Vivo 21: 429-433).
# [2] = system: Hsp90 client proteins (Raf-1, total and phosphorylated Akt); experiment: Western blotting of Hsp90 client proteins in 293T cells; assay type: cell-based, human; conditions: 2 μM, 24 h, positive control
# Protocol: FIG. 5A is a digital image of a western blot analysis illustrating the effect of lead compounds on the expression of Hsp90 client proteins. 293T cells stably expressing Hsp90(α/β)/p23 split reporters were treated with carrier control or compounds CP1, CP9, or CP18 (5 μM each) for 24 h. The known Hsp90 inhibitor PU-H71 (2 μM) was used as a positive control. The expression of Hsp90 client proteins (Raf-1, total and phosphorylated Akt) was determined by western blotting. α-Tubulin was used as a loading control.
# Cells treated with PU-H71 (2 μM) served as a positive control.
# Cells treated with 2 μM of PU-H71 served as a positive control. Western blotting of Hsp70, phosphorylated and total Akt and co-immunoprecipitation of Hsp90(α/β)/p23 interactions was performed as described Inglese et al., (2006) Proc. Nat. Acad. Sci. U.S.A. 103: 11473-11478, incorporated herein by reference in its entirety. The expression of Raf-1 was determined using rabbit polyclonal antibodies against Raf-1 (0.5 μg/ml, Abcam).
structure (smiles),measurement,setting,value
"CC(C)NCCCn1c(Sc2cc3c(cc2I)OCO3)nc2c(N)ncnc21 [PU-H71, reference compound]",sensitivity of drug-resistant V79/ADR cells to DOX,[1],restored the sensitivity
same,"levels of Hsp90 client proteins (pAkt/total Akt, Raf-1)",[2],"decreased levels of Raf-1, pAkt and total Akt"
